Test results as given in US20250346613A1, “BORIC ACID PROTEASOME INHIBITOR AND USE THEREOF” (ARTIVILA BIOPHARMA, priority 2022, published 2025).

How the values were obtained:
Format in all cases: cell-based
[1] = target: T1, β5i subunit of the 20S proteasome (Homo sapiens, UniProt P20618+P28062); assay: Proteasome inhibitory activity, β5i subunit (Raji cells treated with compound, lysed, Ac-ANW-AMC substrate); conditions: proteasome from Raji cells incubated with compound 4 h
T1 construct: The proteasome tested in the present disclosure was derived from Raji cells; endogenous in cells; host or cells: Raji cells
Description: (§1) In the present disclosure, the fluorescent peptide substrate Ac-Ala-Asn-Trp-AMC (abbreviated as Ac-ANW-AMC) and the […] kit containing a fluorescent peptide substrate Suc-Leu-Leu-Val-Tyr-AMC (abbreviated as Suc-LLVY-AMC) (Promega, Item No. G8660) were used to detect the activities of the β5i subunit and β5c subunit of the 20S proteasome, respectively.
(§2) The proteasome tested in the present disclosure was derived from Raji cells, the fluorescent substrate Ac-ANW-AMC was purchased from Roche company, and other reagents were purchased from Sigma company. The experimental system was divided into two parts of cell lysis system and enzyme reaction system. […] The starting concentration of the compound (inhibitor) was 1 μM. It was diluted in a 3-fold serial dilution to a total of 8 concentrations, that is, the administration concentration can be 1 μM, 0.333 μM, 0.111 μM . . . , respectively, and the specific experimental process was described below.
(§3) Raji cells (1×10^6 cells) cryopreserved in liquid nitrogen were thawed rapidly in a water bath at 37° C. The cell pellet was transferred to a 15 mL centrifuge tube, added with 9 mL of fresh medium (Gibco RPMI1640 added with 10% fetal bovine serum and 1% double antibiotics), centrifuged at 120 g for 5 min, inoculated to 25 mL cell culture flasks, and passaged once every 2-3 days.
(§4) The compound was weighed and dissolved in DMSO to a concentration of 10 mM. The compound was then sequentially diluted to concentrations of 200 μM, 66.67 μM, 22.22 μM, 7.41 μM, 2.47 μM, 0.82 μM, 0.27 μM, and 0.091 μM with fresh medium. Raji cells in a good growth status were inoculated into a 48-well cell culture plate at 7×10^5 cells/mL.
(§5) Raji cells in a good growth status were taken and counted. They were then inoculated to a 48-well cell culture plate at 7×10^5 cells/mL. Each 5 μL of the various concentrations of diluted compounds above were taken and added to the culture plate inoculated with cells, and the lowest concentration of compound was 0 μM. The drug bortezomib (Velcade) and ONX-0914 were used as the positive control compounds. All cells were incubated at 37° C. for 4 h.
(§6) The compound-treated cells were sequentially transferred into 1.5 mL centrifuge tubes, centrifuged at 10000 rpm for 2 min, and the supernatants were removed. The cell pellet was resuspended in 1 mL of PBS, centrifuged at 10000 rpm for 2 min, and the supernatant was removed. Cells were resuspended by adding 100 μL of cell lysate (50 mM Tris of pH 7.5, 150 mM NaCl, 5 mM MgCl2, 5 mM ATP, 1 mM DTT, 0.01% NP-40, 1 mM Digitonin, and Cocktail), placed in an ice bath for 30 min, and centrifuged at 13000 rpm for 10 min.
(§7) 2 mg of fluorescent peptide substrate AC-ANW-AMC was dissolved in 424.7 μL of DMSO to obtain an 8 mM stock solution, and stored at −20° C. The stock solution was diluted 100-fold to a final concentration of […] for use in the reaction system. The fluorescent peptide substrate Suc-LLVY-AMC was prepared according to the instructions of the Promega kit.
(§8) Each 20 μL of the prepared proteasome solution above was added to a 96-well white luciferase microplate and added with 25 μL of AC-ANW-AM substrate buffer solution (50 mM Tris of pH 7.5, 150 mM NaCl, 5 mM MgCl2, 5 mM ATP, 80 uM Ac-ANW-AMC and 1 mM DTT) and 25 μL of Suc-LLVY-AMC substrate buffer solution for 10 min of reaction at 37° C. in the dark. Fluorescence values were read at 345 nm/445 nm by using a fluorence microplate reader.
(§9) The data were exported and the inhibition rate in percentage was calculated according to the following formula: Inhibition rate=(maximum signal value-compound signal value)/(maximum signal value−blank signal value)×100%.
(§10) Where the maximum signal was obtained from cell lysates treated with DMSO only, and the blank signal was obtained from wells containing only lysates.

MM.1S cell strain = assay: Inhibitory activity of cell strain (CellTiter-Glo); conditions: Homo sapiens, MM1.S, 72 h incubation
Description: The cells used in this experiment were MM.1S cell strain and the detection reagent was CellTiter-Glo (Promega). […] The experimental process was described below. MM.1S cells in the logarithmic growth phase and in a good status were digested into individual cells by trypsin, centrifuged to remove the supernatant, and counted. Cells were diluted and 100 μL of cell suspension per well was added to a 96-well enzyme-coated plate at 1×10^5 cells per well. The wells containing only RPMI1640 complete medium were set as blank control. The 96-well plate was transferred to a 37° C. incubator containing 5% CO2 for 24 h of incubation.
The compound was accurately weighed and dissolved in DMSO to a concentration of 10^−2 M. 10 μL of compound was pipetted to 190 μL of DMSO to given a 5×10^−4 M compound. 6 μL of the compound (5×10^−5 M) was pipetted to a new 96-well microplate containing 194 μL of RPMI1640 complete medium and diluted in a 3-fold gradient dilution. 50 μL of the diluted compound was transferred to the 96-well microplate containing the cells such that the final compound concentrations were 5×10^−7 M, 1.67×10^−7 M, 5.55×10^−8 M, 1.85×10^−8 M, 6.17×10^−9 M, 2.06×10^−9 M, 6.86×10^−10 M, 2.29×10^−10 M, and 0 M. For the 0 M, no compound was added, and the same concentration of DMSO was added. The marketed drug bortezomib was used as a positive control. The 96-well microplate added with compounds was placed in the 37° C. incubator for 72 h of incubation.
At the predetermined detection time, the 96-well microplate to be detected was placed at room temperature, added with 40 μL of detection reagent (CellTiter-Glo) per well, and covered with a dark lid or piece of aluminium foil. The contents were mixed on an orbit oscillator for 10 min for complete cell lysis, with a vibration speed of 150 rpm. Luminescence values were detected on a multifunctional microplate reader (BioTek Synergy H1 Hybrid Multi-Mode Reade).
The data were exported and the percentage inhibition was calculated according to the following formula: Inhibition rate=(maximum signal value-compound signal value)/(maximum signal value−blank signal value)×100%, • wherein maximum signal was obtained from alone DMSO-treated cells, and blank signal was obtained from wells containing only culture medium.

[2] = target: T2, β5c subunit of the 20S proteasome (Homo sapiens, UniProt P20618+P28074); assay: Proteasome inhibitory activity, β5c subunit (Raji cells treated with compound, lysed, Suc-LLVY-AMC substrate); conditions: proteasome from Raji cells incubated with compound 4 h
T2 construct: The proteasome tested in the present disclosure was derived from Raji cells; endogenous in cells; host or cells: Raji cells
Description: as §1, §2, §3, §4, §5, §6, §7, §8, §9, §10

Row | IC50 [1] [nM] | IC50 (MM.1S cell strain) [nM] | IC50 [2] [nM] | Compound
1 | ≤ 50 | 50 to 200 | ≤ 50 | CC(C(=O)NCc1ccccc1)C(=O)N[C@@H](Cc1ccccc1)B(O)O (stereo partly drawn) [Example 29, ((1R)-1-(3-(benzylamino)-2-methyl-3-oxopropionamido)-2-phenylethyl)boric acid]
2 | ≤ 50 | ≤ 50 | ≤ 50 | COc1cccc(CNC(=O)C(C)C(=O)N[C@@H](Cc2ccc(-c3ccccc3)cc2)B(O)O)c1 (stereo partly drawn) [Example 36, ((1R)-2-([1,1′-biphenyl]-4-yl)-1-(3-((3-methoxybenzyl)amino)-2-methyl-3-oxopropionamido)ethyl)boric acid]
3 | 50 to 200 | 200 to 500 | 50 to 200 | Cc1ccc(C[C@H](NC(=O)C(C)C(=O)NCc2ccccc2)B(O)O)cc1 (stereo partly drawn) [Example 38, ((1R)-1-(3-(benzylamino)-2-methyl-3-oxopropionamido)-2-(p-tolyl)ethyl)boric acid]
4 | ≤ 50 | 50 to 200 | 50 to 200 | Cc1ccc(C[C@H](NC(=O)C(C)C(=O)Nc2ccccc2)B(O)O)cc1 (stereo partly drawn) [Example 40, ((1R)-1-(2-methyl-3-oxo-3-(phenylamino)propionamido)-2-(p-tolyl)ethyl)boric acid]
5 | ≤ 50 | 50 to 200 | 50 to 200 | CC(C)C[C@H](NC(=O)C(C)C(=O)NC1CCCCC1)B(O)O (stereo partly drawn) [Example 41, ((1R)-1-(3-(cyclohexylamino)-2-methyl-3-oxopropionamido)-3-methylbutyl)boric acid]
6 | ≤ 50 | 50 to 200 | ≤ 50 | Cc1ccc(C[C@H](NC(=O)C(C)C(=O)NC2CCCCC2)B(O)O)cc1 (stereo partly drawn) [Example 42, ((1R)-1-(3-(cyclohexylamino)-2-methyl-3-oxopropionamido)-2-(p-tolyl)ethyl)boric acid]
7 | ≤ 50 | ≤ 50 | ≤ 50 | COc1cccc(CNC(=O)C(C)C(=O)N[C@@H](Cc2ccc(C)cc2)B(O)O)c1 (stereo partly drawn) [Example 43, ((1R)-1-(3-((3-methoxybenzyl)amino)-2-methyl-3-oxopropionamido)-2-(p-tolyl)ethyl)boric acid]
8 | ≤ 50 | ≤ 50 | ≤ 50 | O=C(CC(=O)N[C@@H](Cc1ccccc1)B(O)O)NCc1cccc(-c2ccccc2)c1 [Example 44, (R)-(1-(3-(([1,1′-biphenyl]-3-ylmethyl)amino)-3-oxopropionamido)-2-phenylethyl)boronic acid]
9 | ≤ 50 | ≤ 50 | ≤ 50 | Cc1ccc(C[C@H](NC(=O)C(C)C(=O)NCc2cccc(-c3ccccc3)n2)B(O)O)cc1 (stereo partly drawn) [Example 45, ((1R)-1-(2-methyl-3-oxo-3-(((6-phenylpyridin-2-yl)methyl)amino)propionamide)-2-(p-tolyl)ethyl)boric acid]

Second part, the compound before the results:

Row | Compound | IC50 [1] [nM] | IC50 (MM.1S cell strain) [nM] | IC50 [2] [nM]
10 | CC(C(=O)NCc1cccc(-c2ccccc2)n1)C(=O)N[C@@H](Cc1ccccc1)B(O)O (stereo partly drawn) [Example 1, ((1R)-1-(2-methyl-3-oxo-3-(((6-phenylpyridin-2-yl)methyl)amino)propionylamino)-2-phenylethyl)boric acid] | 50 to 200 | 50 to 200 | 50 to 200
11 | COc1cccc(CNC(=O)C(CC2CC2)C(=O)N[C@@H](Cc2ccccc2)B(O)O)c1 (stereo partly drawn) [Example 3, ((1R)-1-(2-(cyclopropylmethyl)-3-((3-methoxybenzyl)amino)-3-oxopropionylamimo)-2-phenylethyl)boric acid] | ≤ 50 | ≤ 50 | ≤ 50
12 | COc1cccc(CNC(=O)C(C)C(=O)N[C@@H](Cc2coc3ccccc23)B(O)O)c1 (stereo partly drawn) [Example 9] | ≤ 50 | ≤ 50 | ≤ 50
13 | Cc1ccc(CNC(=O)/C=C/C(=O)N[C@@H](Cc2ccc(C)cc2)B(O)O)cc1 [Example 10] | 50 to 200 | 200 to 500 | 50 to 200
14 | CC(C)C[C@H](NC(=O)/C=C/C(=O)NCc1cccc(-c2ccccc2)n1)B(O)O [Example 13, (R,E)-(3-methyl-1-(4-oxo-4-(((6-phenylpyridin-2-yl)methyl)amino)but-2-enamido)butyl)boric acid] | 50 to 200 | 50 to 200 | 50 to 200
15 | O=C(/C=C/C(=O)N[C@@H](Cc1ccccc1)B(O)O)NCc1cccc(-c2ccccc2)n1 [Example 14, (R,E)-(1-(4-oxo-4-(((6-phenylpyridin-2-yl)methyl)amino)but-2-enamido)-2-phenylethyl)boric acid] | 50 to 200 | 50 to 200 | 50 to 200
16 | O=C(CCC(=O)N[C@@H](Cc1ccccc1)B(O)O)NCc1ccccc1 [Example 16, (R)-(1-(4-(benzylamino)-4-oxobutanoylamino)-2-phenylethyl)boric acid] | ≤ 50 | 200 to 500 | 50 to 200
17 | O=C(CC(=O)N[C@@H](Cc1coc2ccccc12)B(O)O)NCc1cccc(-c2ccccc2)c1 [Example 22, (R)-(1-(3-(([1,1′-biphenyl]-3-ylmethyl)amino)-3-oxopropionamido)-2-(benzofuran-3-yl)ethyl)boric acid] | ≤ 50 | ≤ 50 | ≤ 50
18 | Cc1ccc(C[C@H](NC(=O)CC(=O)NCc2cccc(-c3ccccc3)c2)B(O)O)cc1 [Example 27, (R)-(1-(3-(([1,1′-biphenyl]-3-ylmethyl)amino)-3-oxopropionamido)-2-(p-tolyl)ethyl)boric acid] | ≤ 50 | ≤ 50 | ≤ 50
19 | CC(C)C[C@H](NC(=O)C(C)C(=O)NCc1ccccc1)B(O)O (stereo partly drawn) [Example 28, ((1R)-1-(3-(benzylamino)-2-methyl-3-oxopropionamido)-3-methylbutyl)boric acid] | 50 to 200 | 50 to 200 | 50 to 200
